What was measured:
LS174T colorectal tumor = test: Human xenograft tumor growth, SCID mice; format: in vivo, mouse; conditions: thrice-weekly dosing 40 mg/kg
HCT116 = conditions: from U.S. Ser. No. 08/527,039; cited from earlier work
IMR32 = conditions: from U.S. Ser. No. 08/527,039; cited from earlier work
NB4 = conditions: from U.S. Ser. No. 08/527,039; cited from earlier work
Lewis lung carcinoma = Lewis lung carcinoma model, lung metastases; format: in vivo, mouse
Protocol: The well-known Lewis lung carcinoma model was used as follows: cells were injected subcutaneously into the flanks of C57 BL/6 mice, which were assigned into control and treated groups containing ten animals per group. On day 8, the tumor was excised. The ketoaldehyde (200 mg/kg body weight) in 20% aqueous ethanol or drug vehicle (aqueous ethanol) was administered intraperitoneally on days 9, 11, 13, 15 and 19. On day 22, the animals were sacrificed and their lungs were removed. The lungs were weighed and the number of metastases determined by counting the nodules established in each lung.

Pilot toxicity study = format: in vivo
Protocol: Significant inhibition of tumor growth has been obtained with doses of only 10–40 mg/kg body weight. Thus, the ketoaldehyde has a therapeutic index (400/(10–40)) of approximately 10 to 40.

[1] = tested on: HL-60 acute promyelocytic leukemia; test: Inhibition of proliferation and apoptosis, flow cytometry; format: cell-based; conditions: Homo sapiens, 20–100 μM, 24, 48, 72 and 96 hours, read-out: Relative Inhibition of Proliferation
Protocol: (§1) The effect of the ketoaldehyde upon the inhibition of cell proliferation in cultured cancer cells was determined using a conventional, fluorescence-based anti-proliferative assay and a flow cytometry method. The extent of apoptosis was determined for some cell lines as well.
(§2) The effect of different concentrations of the ketoaldehyde upon the proliferation of the SW480 colorectal and MCF-7 breast cancer cell lines as a function of time is provided in FIGS. 12 and 13, respectively. The inhibition of proliferation in individual cell lines is summarized in Table 10, which provides a relative ranking of the ketoaldehyde's IC50 for each cell line.

[2] = tested on: SW480 colorectal adenocarcinoma; test: as above; format: cell-based; conditions: Homo sapiens, 20–100 μM, 24, 48, 72 and 96 hours, read-out: Relative Inhibition of Proliferation
Protocol: as §1, §2

[3] = tested on: MCF-7 breast adenocarcinoma; test: as above; format: cell-based; conditions: Homo sapiens, MCF7, 20–100 μM, 24, 48, 72 and 96 hours, read-out: Relative Inhibition of Proliferation
Protocol: as §1, §2

[4] = tested on: HCC 1143 breast carcinoma; test: as above; format: cell-based; conditions: Homo sapiens, HCC1143, 20–100 μM, 24, 48, 72 and 96 hours, read-out: Relative Inhibition of Proliferation
Protocol: as §1, §2

[5] = tested on: NCI-H23 non-small cell lung cancer; test: as above; format: cell-based; conditions: Homo sapiens, 20–100 μM, 24, 48, 72 and 96 hours, read-out: Relative Inhibition of Proliferation
Protocol: as §1, §2

[6] = tested on: D 341 medulloblastoma (brain); test: as above; format: cell-based; conditions: Homo sapiens, D341, 20–100 μM, 24, 48, 72 and 96 hours, read-out: Relative Inhibition of Proliferation
Protocol: as §1, §2

[7] = tested on: SK-Mel malignant melanoma epidermal; test: as above; format: cell-based; conditions: Homo sapiens, 20–100 μM, 24, 48, 72 and 96 hours, read-out: Relative Inhibition of Proliferation
Protocol: as §1, §2

[8] = tested on: LNCaP-FGC-10 prostate tumors; test: Human xenograft tumor growth, nude mice; format: in vivo, mouse
Excerpt: The ketoaldehyde is also active against human LNCaP-FGC-10 prostate tumors grown in nude mice.

HT29 colon cancer = test: Inhibition of proliferation, fluorescence-based assay; format: cell-based; conditions: Homo sapiens, HT-29, 10–175 μM, 72 hours, read-out: Relative Inhibition of Proliferation
Protocol: as §1, §2

[9] = tested on: NB4 acute promyelocytic leukemia; test: as above; format: cell-based; conditions: Homo sapiens, 10–175 μM, 72 hours, read-out: Relative Inhibition of Proliferation
Protocol: as §1, §2

HCT116 colon cancer = test: as above; format: cell-based; conditions: Homo sapiens, HCT-116, 10–175 μM, 72 hours, read-out: Relative Inhibition of Proliferation
Protocol: as §1, §2

[10] = tested on: K562 chronic myelogenous leukemia; test: as above; format: cell-based; conditions: Homo sapiens, 10–175 μM, 72 hours, read-out: Relative Inhibition of Proliferation
Protocol: as §1, §2

IMR32 neuroblastoma = test: as above; format: cell-based; conditions: Homo sapiens, IMR-32, 10–175 μM, 72 hours, read-out: Relative Inhibition of Proliferation
Protocol: as §1, §2

K562 = conditions: from U.S. Ser. No. 08/527,039; cited from earlier work
[11] = tested on: DA-3 mammary adenocarcinoma; conditions: over 28 days; from U.S. Ser. No. 08/527,039; cited from earlier work
[12] = tested on: MCF-7 human breast cancer tumor; test: Human xenograft tumor growth, nude mice; format: in vivo, mouse; conditions: 40 mg/kg body weight
Excerpt: […] […] While the MCF-7 cell line appears to be less susceptible to the ketoaldehyde than the SW480 cell line, it should be noted that the MCF-7-derived tumors grow more aggressively than those derived from SW480, which necessitated using 20-fold fewer MCF-7 cells to obtain an initially slower rate of tumor growth.

[13] = tested on: SW480 human colorectal tumor; test: Human xenograft tumor growth, nude mice; format: in vivo, mouse; conditions: 40 mg/kg body weight three times per week, FIG. 14
Protocol: FIG. 14 is a graph illustrating the inhibition of growth by the ketoaldehyde of a tumor derived from human colorectal cancer cells. Balb/c nude mice were inoculated subcutaneously in the flank with 5.0×10^6 cells of the SW-480 human colorectal adenocarcinoma cell line. There were 7 control animals and 7 animals in the treatment group. The administration schedule was 40 mg/kg of ketoaldehyde in 20% ethanol in saline given by intraperitoneal injection 3 times per week (Monday, Wednesday and Friday).
The ketoaldehyde provides a significant degree of tumor growth control for a period of more than 67 days in a nude mouse xenograft model of human colon cancer (human colon cancer cell line, SW480; see FIG. 14).

## CC(=O)C=CC=C(C)C=O [the ketoaldehyde, 2-methyl-6-oxo-2,4-heptadienal]
LS174T colorectal tumor
  tumor response: responded well
HCT116
  cytostatic effect: cytostatic effect
IMR32
  cytostatic effect: cytostatic effect
NB4
  cytostatic effect: cytostatic effect
Lewis lung carcinoma; 200 mg/kg i.p. days 9, 11, 13, 15, 19, day 22, control 0.287 ± 0.013 g, 2-tail t-test 0.004
  Mean Lung Weight ± SEM: 0.229 ± 0.012 g
Lewis lung carcinoma; 200 mg/kg i.p. days 9, 11, 13, 15, 19, day 22, control 28.0 ± 2.4, 2-tail t-test 0.01
  Mean No. Metastases ± SEM: 14.4 ± 4.1
Lewis lung carcinoma; 200 mg/kg i.p., day 22
  Difference in Mean Lung Weight, control minus treated: 0.058 g
  Difference in Mean No. Metastases, control minus treated: 13.6
Lewis lung carcinoma; treated animals versus control
  reduction in the number of lung metastases: ~50%
Pilot toxicity study; mice, pilot toxicity study
  LD100: approximately 400 mg/kg body weight
Pilot toxicity study; mouse, in vivo
  therapeutic index (400/(10–40)): 10–40
  toxicity at therapeutically functional doses: No toxicity
[1]
  IC50: ~50 µM
[2]
  IC50: ~50 µM
[3]
  IC50: ~50 µM
[4]
  IC50: > 100 µM
[5]
  IC50: ~50 µM
[6]
  IC50: ~50 µM
[7]
  IC50: ~100 µM
[8]
  activity against tumors: active
HT29 colon cancer
  IC50: ~100 µM
[9]
  IC50: ~100 µM
HCT116 colon cancer
  IC50: ~50 µM
[10]
  IC50: > 100 µM
IMR32 neuroblastoma
  IC50: ~50 µM
K562
  cytostatic effect: cytostatic effect
[11]
  tumor volume: less than 50 % of the control
[12]; daily dosing
  tumor response: improved response
[12]; thrice-weekly dosing
  tumor response: responded
[13]
  period of significant tumor growth control: more than 67 days
